In ChEMBL document CHEMBL5215006, “Antitumor Activity of Piceamycin by Upregulation of N-Myc Downstream-Regulated Gene 1 in Human Colorectal Cancer Cells” (J Nat Prod, 2022):
Active and inactive are the calls of the source. The calls are words filed in the database; no cut-off is given here.

Key:
HCT-116 [1] = experiment: Cell cycle arrest in human HCT-116 cells assessed as accumulation at G0/G1 phase at 0.3 uM incubated upto 48 hrs by RNaseA/propidium iodide staining based flow cytometry; format: functional
SW480 [2] = experiment: Anti-migratory activity against human SW480 cells assessed as upregulation of E-cadherin protein expression at 0.35 to 1.4 uM incubated for 24 hrs by immunoblotting assay; format: functional, cell-based; settings: dose 0.35-1.4 µM
HCT-116 [3] = experiment: Antitumor activity against human HCT-116 cells assessed as upregulation of NDRG1 gene expression at 0.075 to 0.3 uM incubated for 24 hrs by RT-PCR method; format: functional, cell-based; settings: dose 0.075-0.3 µM, DDE = dose-dependent effect
HCT-116 [4] = experiment: Antimigratory activity against highly liver metastatic human HCT-116 cells assessed as upregulation of E-cadherin gene expression at 0.075 to 0.3 uM incubated for 24 hrs by RT-PCR method; format: functional, cell-based; settings: dose 0.075-0.3 µM
HCT-116 [5] = experiment: Antimigratory activity against highly liver metastatic human HCT-116 cells assessed as upregulation of NDRG1 protein expression at 0.075 to 0.3 uM incubated for 24 hrs by immunoblotting assay; format: functional, cell-based; settings: dose 0.075-0.3 µM
HCT-116 [6] = experiment: Cell cycle arrest in human HCT-116 cells assessed as accumulation at G0/G1 phase at 0.15 uM incubated for 24 hrs by RNaseA/propidium iodide staining based flow cytometry (reference value: 48.44 %); format: functional
SW480 [7] = experiment: Induction of apoptosis in human SW480 cells assessed as late apoptotic cells at 0.35 uM incubated for 48 hrs by Annexin V-FITC/PI staining based flow cytometry analysis (Rvb= 5.26%); format: functional
SW480 [8] = experiment: Cell cycle arrest in human SW480 cells assessed as accumulation at S phase at 1.4 uM incubated for 24 hrs by RNaseA/propidium iodide staining based flow cytometry (reference value: 16.7 %); format: functional
HCT-116 [9] = experiment: Cell cycle arrest in human HCT-116 cells assessed as accumulation at G2/M phase at 0.3 uM incubated for 24 hrs by RNaseA/propidium iodide staining based flow cytometry (reference value: 28.41 %); format: functional
SW480 [10] = experiment: Induction of apoptosis in human SW480 cells assessed as early apoptotic cells at 0.7 uM incubated for 48 hrs by Annexin V-FITC/PI staining based flow cytometry analysis (Rvb= 2.07%); format: functional
HCT-116 [11] = experiment: Induction of apoptosis in human HCT-116 cells assessed as upregulation of cleaved caspase-9 expression at 0.3 uM measured after 48 hrs by immunoblotting assay; format: functional, cell-based
SW480 [12] = experiment: Anti-migratory activity against human SW480 cells assessed as downregulation of N-cadherin protein expression at 0.35 to 1.4 uM incubated for 24 hrs by immunoblotting assay; format: functional, cell-based; settings: dose 0.35-1.4 µM
SW480 [13] = experiment: Cell cycle arrest in human SW480 cells assessed as accumulation at G0/G1 phase at 1.4 uM incubated for 24 hrs by RNaseA/propidium iodide staining based flow cytometry (reference value: 54.49 %); format: functional
SW480 [14] = experiment: Cell cycle arrest in human SW480 cells assessed as accumulation at S phase at 0.35 uM incubated for 24 hrs by RNaseA/propidium iodide staining based flow cytometry (reference value: 16.7 %); format: functional
SW480 [15] = experiment: Cell cycle arrest in human SW480 cells assessed as accumulation at Sub-G1 phase at 1.4 uM incubated for 24 hrs by RNaseA/propidium iodide staining based flow cytometry (reference value: 3.2 %); format: functional
SW480 [16] = experiment: Induction of apoptosis in human SW480 cells assessed as upregulation of cleaved caspase-9 expression at 1.4 uM measured after 48 hrs by immunoblotting assay; format: functional, cell-based
HCT-116 [17] = experiment: Induction of apoptosis in human HCT-116 cells assessed as necrotic cells at 0.15 uM incubated for 48 hrs by Annexin V-FITC/PI staining based flow cytometry analysis (Rvb= 0.13%); format: functional
[18] = Toxicity in Balb/c mouse xenografted with human HCT-116 cells assessed as body weight change at 1 mg/kg,ip administrated for 18 days by 3 times per week; format: organism-based; settings: in vivo, 432 h, time 18 day
HCT-116 [19] = experiment: Anti-migratory activity against human HCT-116 cells assessed as downregulation of N-cadherin protein expression at 0.075 to 0.3 uM incubated for 24 hrs by immunoblotting assay; format: functional, cell-based; settings: dose 0.075-0.3 µM
SW480 [20] = experiment: Induction of apoptosis in human SW480 cells assessed as necrotic cells at 0.35 uM incubated for 48 hrs by Annexin V-FITC/PI staining based flow cytometry analysis (Rvb= 0.07%); format: functional
HCT-116 [21] = experiment: Inhibition of cell migration in human HCT-116 cells at 0.075 to 0.3 uM incubated for 24 hrs by wound-healing assay; format: functional, cell-based; settings: dose 0.075-0.3 µM, DDE = dose-dependent effect
HCT-116 [22] = experiment: Cell cycle arrest in human HCT-116 cells assessed as accumulation at Sub-G1 phase at 0.3 uM incubated for 24 hrs by RNaseA/propidium iodide staining based flow cytometry (reference value: 3.66 %); format: functional
SW480 [23] = experiment: Induction of apoptosis in human SW480 cells assessed as early apoptotic cells at 1.4 uM incubated for 48 hrs by Annexin V-FITC/PI staining based flow cytometry analysis (Rvb= 2.07%); format: functional
SW480 [24] = experiment: Cell cycle arrest in human SW480 cells assessed as downregulation of CDK6 protein expression at 0.35 to 1.4 uM incubated for 24 hrs by immunoblotting assay; format: functional, cell-based; settings: dose 0.35-1.4 µM
SW480 [25] = experiment: Induction of apoptosis in human SW480 cells assessed as necrotic cells at 0.7 uM incubated for 48 hrs by Annexin V-FITC/PI staining based flow cytometry analysis (Rvb= 0.07%); format: functional
SW480 [26] = experiment: Cell cycle arrest in human SW480 cells assessed as accumulation at G2/M phase at 1.4 uM incubated for 24 hrs by RNaseA/propidium iodide staining based flow cytometry (reference value: 24.74 %); format: functional
SW480 [27] = experiment: Inhibition of colony formation in human SW480 cells at 0.35 to 1.4 uM incubated for 72 hrs by crystal violet staining based assay; format: functional, cell-based; settings: dose 0.35-1.4 µM, DDE = dose-dependent effect
HCT-116 [28] = experiment: Induction of apoptosis in human HCT-116 cells assessed as early apoptotic cells at 0.075 uM incubated for 48 hrs by Annexin V-FITC/PI staining based flow cytometry analysis (Rvb= 2.51%); format: functional
HCT-116 [29] = experiment: Inhibition of colony formation in human HCT-116 cells at 0.075 to 0.3 uM incubated for 72 hrs by crystal violet staining based assay; format: functional, cell-based; settings: dose 0.075-0.3 µM, DDE = dose-dependent effect
HCT-116 [30] = experiment: Antimigratory activity against highly liver metastatic human HCT-116 cells assessed as downregulation of N-cadherin gene expression at 0.075 to 0.3 uM incubated for 24 hrs by RT-PCR method; format: functional, cell-based; settings: dose 0.075-0.3 µM
HCT-116 [31] = experiment: Antitumor activity against human HCT-116 cells xenografted Balb/c mouse assessed as decrease in Ki67 protein expression at 3 mg/kg,ip administrated for 18 days by 3 times per week by immunoblotting assay; format: functional, organism-based; settings: time 18.0 day
HCT-116 [32] = experiment: Upregulation of c-Myc protein expression in human HCT-116 cells with NDRG1 knockdown at 0.3 uM incubated for 24 hrs by immunoblotting assay; format: functional, cell-based
HCT-116 [33] = experiment: Cell cycle arrest in human HCT-116 cells assessed as downregulation of CDK4 protein expression at 0.075 to 0.3 uM incubated for 24 hrs by immunoblotting assay; format: functional, cell-based; settings: dose 0.075-0.3 µM
HCT-116 [34] = experiment: Induction of apoptosis in human HCT-116 cells assessed as viable cells at 0.3 uM incubated for 48 hrs by Annexin V-FITC/PI staining based flow cytometry analysis (Rvb= 94.18%); format: functional; settings: read-out: Activity

With `C[C@@H]1\C=C/C=C/C=C\C=C\C=C\C(=O)C2=C(O)C(=O)C[C@@]2(C)/C=C/C=C\C=C/C(=O)NC1` the Activity (HCT-116 [1]) was “Active”, the Activity (SW480 [2]) was “Active” and the Activity (HCT-116 [3]) was “Dde”. For the same compound, the Activity (HCT-116 [4]) was “Active”, the Activity (HCT-116 [5]) was “Active” and the Activity (HCT-116 [6]) was 55.55%. It also gave an Activity (SW480 [7]) of 4.36%, an Activity (SW480 [8]) of 11.23% and an Activity (HCT-116 [9]) of 22.13%. The Activity (SW480 [10]) was 12.31%, the Activity (HCT-116 [11]) was “Active” and the Activity (SW480 [12]) was “Active”. The Activity (SW480 [13]) was 65.42%, the Activity (SW480 [14]) was 15.86% and the Activity (SW480 [15]) was 4.98%. For the same compound, the Activity (SW480 [16]) was “Active”, the Activity (HCT-116 [17]) was 0.18% and the Activity [18] was “Non-Toxic”. For the same compound, the Activity (HCT-116 [19]) was “Active”, the Activity (SW480 [20]) was 0.06% and the inhibition (HCT-116 [21]) was “Dde”. For the same compound, the Activity (HCT-116 [22]) was 5.19%, the Activity (SW480 [23]) was 24.26% and the Activity (SW480 [24]) was “Active”. For the same compound, the Activity (SW480 [25]) was 0.08%, the Activity (SW480 [26]) was 19.26% and the inhibition (SW480 [27]) was “Dde”. For the same compound, the Activity (HCT-116 [28]) was 8.29%, the inhibition (HCT-116 [29]) was “Dde” and the Activity (HCT-116 [30]) was “Active”. For the same compound, the Activity (HCT-116 [31]) was “Active”, the Activity (HCT-116 [32]) was “Active” and the Activity (HCT-116 [33]) was “Active”. For the same compound, the viability at 0.3 µM (HCT-116 [34]) was 40.1%.
